Data published in patent publication US20260219274A1, “POLYOL SWEETNERS AND CARDIOVASCULAR AND THROMBOTIC EVENT RISK” (THE CLEVELAND CLINIC FOUNDATION, priority 2023, published 2026).

Key:
human whole blood = assay: Whole blood in vitro thrombosis assay (collagen-coated microfluidic chip); type: cell-based
Procedure: Shear flow experiments of whole blood were performed with a Cellix Microfluidics System (Cellix, Dublin, Ireland) as previously described and outlined in additional methods.^41-43 The extent of platelet activation and adhesion to the collagen matrix was quantified using computer assisted tomographic analyses, as previously described.^40
Shear flow experiments of whole blood were performed with a Cellix Microfluidics System (Cellix, Dublin, Ireland) as previously described.^6-8 Before use, the micro channels of a Vena8 Fluoro+ biochip were coated with type 1 collagen (15 μL; 50 μg/mL) and each channel of the biochip then washed with PBS using the Mirus Nanopump. Images were taken with an HC Plan Apo 20X/0.7NA lens on a Leica DMI6000 inverted microscope equipped with an environmental chamber and a Hamamatsu ImagEM cooled CCD camera. […] Images of platelets adhering to the collagen matrix were recorded every 5 s. […] The extent of platelet activation and adhesion to the collagen matrix was quantified using computer assisted tomographic analyses as previously described.^5 Briefly, images of CD42b stained platelet thrombi were quantified using Image Pro plus software (Media Cybernetics, Rockville, Maryland, USA). The intensity threshold was chosen to select for specific staining and the integrated optical density (IOD, Area×Intensity) quantified. […]

[1] = system: stable subjects undergoing elective diagnostic cardiac evaluations (Discovery Cohort); details: in vivo
Source text: Our first study employed a Discovery Cohort, where we used untargeted metabolomics (semi-quantitative analyses) to analyze plasma samples from 1,157 stable subjects to identify circulating analytes whose levels were associated with future development of adverse cardiovascular events over an ensuing 3 year period. The Discovery Cohort included sequential stable patients (ages 18 years or above) undergoing elective diagnostic coronary angiography for risk evaluation at a quaternary referral center between 2001 and 2007 (GeneBank at the Cleveland Clinic; clinicaltrials.gov identifier: NCT00590200) with clinical and longitudinal outcomes.
In both, the Discovery and Validation Cohorts, Major Adverse Cardiovascular Events (MACE) were defined as death, nonfatal myocardial infarction, or nonfatal cerebrovascular accident (stroke) during follow-up. Adjudicated long term survival data were collected through medical records review and Social Security Death Index query. Cardiovascular disease (CVD) was indicated as presence of peripheral artery disease or coronary artery disease, indicated as any clinical history of myocardial infarction, coronary revascularization (including percutaneous coronary intervention, coronary artery bypass surgery), or angiographic evidence of significant stenosis (≥50%) in 1 or more major coronary arteries. Estimated glomerular filtration rate (eGFR) in both cohorts was calculated based on the recent Chronic Kidney Disease Epidemiology Collaboration 2021 CKD-EPI Creatinine equation.^37 Platelet-related hematology analyses were performed with an Advia 120 hematology analyzer (Siemens, New York, NY).^38 Use of anti-platelet agents (=1556) was defined as either aspirin or a P2Y12 agent or both. All observational studies in this example are reported in compliance with the STrengthening the Reporting of Observational studies in Epidemiology (STROBE)-Statement.^39 Information on gender of study participants of the Discovery and Validation Cohorts is reported in Table 1-3.
For untargeted mass spectrometry analyses, subject plasma samples were derivatized and run on GC-MS analyses as previously described.^19 Raw data files were processed using the metabolomics BinBase database.^45
Continuous variables are summarized as median (interquartile range [IQR]), and categorical variables are presented as %. Difference between groups (e.g. tertiles or quartiles) were examined using Kruskal Wallis test for continuous variables and chisq (χ^2) test for categorical variables. Kaplan-Meier analysis with Cox proportional-hazards regression was used for time-to-event analysis to determine hazard ratios (HR) and 95% confidence intervals (CI) for incident MACE. Adjustments included traditional cardiovascular risk factors (age, sex, diabetes mellitus, systolic blood pressure, low-density lipoprotein cholesterol levels, high-density lipoprotein cholesterol levels, triglyceride levels, smoking status) and high-sensitivity C-reactive protein (hsCRP). We confirmed that the proportionality hazards assumptions were met using the Schoenfeld residuals against the transformed time. Mann-Whitney U-test or Wilcoxon matched-pairs signed rank test were applied to continuous variables to examine differences between 2 groups. Kruskal-Wallis test with Dunn's post hoc test was used for pairwise multiple comparisons of ranked data. Two-way ANOVA with Šidák's multiple comparison post hoc test was used for multiple-group comparisons of aggregometry responses using different concentrations of agonists. For analysis of collagen-dependent platelet adhesion in whole blood, a two-way repeated measures ANOVA with Sidák's multiple comparison post hoc test was used. All reported measurements represent distinct samples. Data analyses were performed with R software (version 4.0.2) and GraphPad Prism software (version 9.1.2). A two-sided P<0.05 was considered statistically significant. […]

**Q.** OC[C@@H](O)[C@@H](O)CO [erythritol] was tested. Which “rate of collagen-dependent platelet adhesion and thrombus formation” value (human whole blood; erythritol (45 μM), physiological shear conditions) did it give?
**A.** significant enhancement

**Q.** What about the “HR for MACE” value [1] of the same compound?
**A.** 3.22 [95% CI 1.91-5.41]

**Q.** And the “HR with 95% CI” value [1]?
**A.** 1.31 (1.17-1.46)

**Q.** What about the “adjusted HR for incident MACE” value [1] of the same compound?
**A.** 2.95 [1.70-5.12]

**Q.** Which results are given for OC[C@@H](O)[C@H](O)[C@@H](O)CO [xylitol]?
**A.** rate of collagen-dependent platelet adhesion and spreading (human whole blood; xylitol, physiological shear flow): substantially accelerated; adjusted HR [95% CI] for incident (3 year) MACE [1]: 1.64 [1.05-2.56]; hazard ratio (HR) [95% CI] for incident (3 year) MACE [1]: 1.63 [1.04-2.53]
